Where a name gives a salt, the structure may show the parent alone.
These compounds were tested against GTP-KRAS-G12D:SOS1 (Homo sapiens (Human), UniProt P01116, G12D) (assay: GTP-KRAS-G12D:SOS1 binding inhibition).
Description: The IC50 of the compounds was fitted using a nonlinear regression equation with GraphPad Prism 8. The results are presented in Table 2: • Negative control: DMSO • Positive control: 100 μM BI-2852
The following nonlinear fitting formula was used to obtain the IC50 (half-maximal inhibitory concentration) of the compounds:
[formula] • X: logarithm of the compound concentration • Y: 665/615 Ratio

GTP-KRAS-G12D:SOS1, sequence (P01116-2 other isoform, or with tags, fused parts or gaps G12D): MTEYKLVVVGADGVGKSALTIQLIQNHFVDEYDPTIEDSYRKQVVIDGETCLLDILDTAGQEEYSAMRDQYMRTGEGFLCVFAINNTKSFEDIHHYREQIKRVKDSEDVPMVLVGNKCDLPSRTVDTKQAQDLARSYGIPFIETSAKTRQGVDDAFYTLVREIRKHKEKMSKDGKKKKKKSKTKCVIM

| Compound | IC50 [nM] |
| --- | --- |
| CCc1cccc2cc(O)cc(-c3c(F)c4c5c(nc(OC[C@@]67C[C@H](O)CN6C[C@H](F)C7)nc5c3F)N3CC5CCC(N5)C3CO4)c12 (single isomer, unassigned) [Compound 15a, (2S,6R,7aS)-7a-((((2R or 2S, 5aS,6S,9R)-2-(8-Ethyl-3-hydroxynaphthalen-1-yl)-1,3-difluoro-5a,6,7,8,9,10-hexahydro-5H-6,9-epiminoazepino[2′,1′:3,4][1,4]oxazepino[5,6,7-de]quinazolin-13-yl)oxy)methyl)-6-fluorohexahydro-1H-pyrrolizin-2-ol dihydrochloride] | 2670 |
| Oc1cc(Cl)c2c(c1)C1(CC2)CCc2c(nc(OC[C@@]34CCCN3C[C@H](F)C4)nc2N2CC3CCC(C2)N3)C1F (single isomer, unassigned) [Compound 8c, (1S or 1R,8′R or 8'S)-4′-((1R,5S)-3,8-diazabicyclo[3.2.1]octan-3-yl)-4-chloro-8′-fluoro-2′-(((2R,7aS)-2-fluorotetrahydro-1H-pyrrolizin-7a(5H)-yl)methoxy)-2,3,5′,8′-tetrahydro-6′H-spiro[indene-1,7′-quinazolin]-6-ol dihydrochloride] | 4010 |
| Oc1cc(-c2c(F)c3c4c(nc(OC[C@@]56CCCN5C[C@H](F)C6)nc4c2F)N2CC4CCC(N4)C2CO3)c2c3c(ccc2c1)CCC3 (single isomer, unassigned) [Compound 14b, 9-((2S or 2R,5aS,6S,9R)-1,3-difluoro-13-(((2R,7aS)-2-fluorotetrahydro-1H-pyrrolizin-7a(5H)-yl)methoxy)-5a,6,7,8,9,10-hexahydro-5H-6,9-epiminoazepino[2′,1′:3,4][1,4]oxazepino[5,6,7-de]quinazolin-2-yl)-2,3-dihydro-1H-cyclopenta[a]naphthalen-7-ol dihydrochloride] | 15.3 |
| CCc1cccc2cc(O)cc(-c3c(F)c4c5c(nc(OC[C@]67C[C@@H](F)CN6C[C@@H](OC)C7)nc5c3F)N3CC5CCC(N5)C3CO4)c12 (single isomer, unassigned) [Compound 16b, 4-((2S or 2R,5aS,6S,9R)-1,3-difluoro-13-(((2R,6S,7aS)-2-fluoro-6-methoxytetrahydro-1H-pyrrolizin-7a(5H)-yl)methoxy)-5a,6,7,8,9,10-hexahydro-5H-6,9-epiminoazepino[2′, l′: 3,4][1,4]oxazepino[5,6,7-de]quinazolin-2-yl)-5-ethylnaphthalen-2-ol dihydrochloride] | 7.55 |
| CCc1cccc2cc(O)cc(-c3c(F)c4c5c(nc(OC[C@]67C[C@@H](F)CN6C[C@@H](CO)C7)nc5c3F)N3CC5CCC(N5)C3CO4)c12 (single isomer, unassigned) [Compound 23a, 4-((2R or 2S, 5aS,6S,9R)-1,3-Difluoro-13-(((2R,6S,7aS)-2-fluoro-6-(hydroxymethyl)tetrahydro-1H-pyrrolizin-7a(5H)-yl)methoxy)-5a,6,7,8,9,10-hexahydro-5H-6,9-epiminoazepino[2′,1′:3,4][1,4]oxazepino[5,6,7-de]quinazolin-2-yl)-5-ethylnaphthalen-2-ol dihydrochloride] | 3690 |
| COc1ccc(-c2cc[nH]n2)c(-c2c(F)c3c4c(nc(OC[C@@]56CCCN5C[C@H](F)C6)nc4c2F)N2CC4CCC(N4)C2CO3)c1 (stereo partly drawn) [Compound 17, (5aS,6S,9R)-1,3-Difluoro-13-(((2R,7aS)-2-fluorotetrahydro-1H-pyrrolizin-7a(5H)-yl)methoxy)-2-(5-methoxy-2-(1H-pyrazol-3-yl)phenyl)-5a,6,7,8,9,10-hexahydro-5H-6,9-epiminoazepino[2′,1′:3,4][1,4]oxazepino[5,6,7-de]quinazoline dihydrochloride] | 8310 |
| Cc1cc(N)nc(-c2c(F)c3c4c(nc(OC[C@@]56CCCN5C[C@H](F)C6)nc4c2F)N2CC4CCC(N4)C2CO3)c1C(F)(F)F (single isomer, unassigned) [10a′, (S or R)-6-((5aS,6S,9R)-1,3-Difluoro-13-(((2R,7aS)-2-fluorotetrahydro-1H-pyrrolizin-7a(5H)-yl)methoxy)-5a,6,7,8,9,10-hexahydro-5H-6,9-epiminoazepino[2′,1′:3,4][1,4]oxazepino[5,6,7-de]quinazolin-2-yl)-4-methyl-5-(trifluoromethyl)pyridin-2-amine] | 700 |
| CCc1cccc2cc(O)cc(-c3c(F)c4c5c(nc(OC[C@]67C[C@@H](F)CN6C[C@@H](CO)C7)nc5c3F)N3CC5CCC(N5)C3CO4)c12 (single isomer, unassigned) [Compound 23b, 4-((2S or 2R,5aS,6S,9R)-1,3-difluoro-13-(((2R,6S,7aS)-2-fluoro-6-(hydroxymethyl)tetrahydro-1H-pyrrolizin-7a(5H)-yl)methoxy)-5a,6,7,8,9,10-hexahydro-5H-6,9-epiminoazepino[2′,1′:3,4][1,4]oxazepino[5,6,7-de]quinazolin-2-yl)-5-ethylnaphthalen-2-ol dihydrochloride] | 5.75 |
| Cc1cc(N)nc(-c2c(F)c3c4c(nc(OC[C@@]56CCCN5C[C@H](F)C6)nc4c2F)N2C[C@@H]4CCC(N4)[C@H]2CCO3)c1C(F)(F)F (single isomer, unassigned) [Compound 26b, 6-((2R or 2S, 6aS,7S,10R)-1,3-difluoro-14-(((2R,7aS)-2-fluorotetrahydro-1H-pyrrolizin-7a(5H)-yl)methoxy)-5,6,6a,7,8,9,10,11-octahydro-7,10-epiminoazepino[1′,2′: 5,6][1,5]oxazocino[4,3,2-de]quinazolin-2-yl)-4-methyl-5-(trifluoromethyl)pyridin-2-amine] | 15.7 |
| CCc1cccc2cc(O)cc(-c3c(F)c4c5c(nc(OC[C@@]67CCC8(CC8)N6C[C@H](F)C7)nc5c3F)N3CC5CCC(N5)C3CO4)c12 (single isomer, unassigned) [Compound 20b, 4-((2S or 2R,5aS,6S,9R)-1,3-difluoro-13-(((6′R,7a'S)-6′-fluorotetrahydrospiro[cyclopropane-1,3′-pyrrolizin]-7a′ (5′H)methoxy)-5a,6,7,8,9,10-hexahydro-5H-[6,9]epiminoazepino[2′,1′:3,4][1,4]oxazepino[5,6,7-de]quinazolin-2-yl)-5-ethylnaphthalen-2-oldihydrochloride] | 8.81 |
| CCc1cccc2cc(O)cc(-c3c(F)c4c5c(nc(OC[C@@]67CCCN6C[C@H](F)C7)nc5c3F)N3CC5CCC(N5)C3CCO4)c12 (single isomer, unassigned) [Compound 13b, 4-((2R or 2S, 6aS,7S,10R)-1,3-difluoro-14-(((2R,7aS)-2-fluorotetrahydro-1H-pyrrolizin-7a(5H)-yl)methoxy)-5,6,6a,7,8,9,10,11-octahydro-7,10-epiminoazepino[1′,2′: 5,6][1,5]oxazocino[4,3,2-de]quinazolin-2-yl)-5-ethylnaphthalen-2-ol dihydrochloride] | 8930 |
| CCc1cccc2cc(O)cc(-c3c(F)c4c5c(nc(OC[C@]67C[C@@H](F)CN6C[C@H](CO)C7)nc5c3F)N3CC5CCC(N5)C3CO4)c12 (single isomer, unassigned) [Compound 21a, 4-((2R or 2S, 5aS,6S,9R)-1,3-Difluoro-13-(((2R,6R,7aS)-2-fluoro-6-(hydroxymethyl)tetrahydro-1H-pyrrolizin-7a(5H)-yl)methoxy)-5a,6,7,8,9,10-hexahydro-5H-6,9-epiminoazepino[2′,1′:3,4][1,4]oxazepino[5,6,7-de]quinazolin-2-yl)-5-ethylnaphthalen-2-ol dihydrochloride] | 7220 |
| CCc1cccc2cc(O)cc(-c3c(F)c4c5c(nc(OC[C@]67C[C@@H](F)CN6C[C@H](CO)C7)nc5c3F)N3CC5CCC(N5)C3CO4)c12 (single isomer, unassigned) [Compound 21b, 4-((2S or 2R,5aS,6S,9R)-1,3-difluoro-13-(((2R,6R,7aS)-2-fluoro-6-(hydroxymethyl)tetrahydro-1H-pyrrolizin-7a(5H)-yl)methoxy)-5a,6,7,8,9,10-hexahydro-5H-6,9-epiminoazepino[2′,1′:3,4][1,4]oxazepino[5,6,7-de]quinazolin-2-yl)-5-ethylnaphthalen-2-ol dihydrochloride] | 7.21 |
| Nc1nc2c(-c3c(F)c4c5c(nc(OC[C@@]67CCCN6C[C@H](F)C7)nc5c3F)N3CC5CCC(N5)C3CO4)ccc(F)c2s1 (stereo partly drawn) [Compound 19, 4-((5aS,6S,9R)-1,3-Difluoro-13-(((2R,7aS)-2-fluorotetrahydro-1H-pyrrolizin-7a(5H)-yl)methoxy)-5a,6,7,8,9,10-hexahydro-5H-6,9-epiminoazepino[2′,1′:3,4][1,4]oxazepino[5,6,7-de]quinazolin-2-yl)-7-fluorobenzo[d]thiazol-2-amine dihydrochloride] | 12.7 |
| CCc1cccc2cc(O)cc(-c3c(F)c4c5c(nc(OC[C@]67C[C@@H](F)CN6C[C@@H](COC)C7)nc5c3F)N3CC5CCC(N5)C3CO4)c12 (single isomer, unassigned) [Compound 18a, 4-((2R or 2S, 5aS,6S,9R)-1,3-Difluoro-13-(((2R,6S,7aS)-2-fluoro-6-(methoxymethyl)tetrahydro-1H-pyrrolizin-7a(5H)-yl)methoxy)-5a,6,7,8,9,10-hexahydro-5H-6,9-epiminoazepino[2′,1′:3,4][1,4]oxazepino[5,6,7-de]quinazolin-2-yl)-5-ethylnaphthalen-2-ol dihydrochloride] | 1940 |
| CCc1cccc2cc(O)cc(-c3c(F)c4c5c(nc(OC[C@]67C[C@@H](F)CN6C[C@@H](CN6CCOCC6)C7)nc5c3F)N3CC5CCC(N5)C3CO4)c12 (single isomer, unassigned) [Compound 28a, 4-((2R or 2S, 5aS,6S,9R)-1,3-Difluoro-13-(((2R,6R,7aS)-2-fluoro-6-(morpholinomethyl)tetrahydro-1H-pyrrolizin-7a(5H)-yl)methoxy)-5a,6,7,8,9,10-hexahydro-5H-6,9-epiminoazepino[2′,1′:3,4][1,4]oxazepino[5,6,7-de]quinazolin-2-yl)-5-ethylnaphthalen-2-ol trihydrochloride] | 5300 |

From patent US20250197424A1, “QUINOLINE COMPOUND AND USE THEREOF” (SHANGHAI PHARMACEUTICALS HOLDING CO., LTD., priority 2022, published 2025)
